Entries after “also recorded” stand apart in the source; their conditions may differ.
What was measured:
Arabidopsis [1] = experiment: Arabidopsis seedling growth / primary root length on treated ½× MS media; format: in vivo, Arabidopsis thaliana
Description: (§1) Plant Growth. For the Arabidopsis treatments, compounds were added to sterile ½× Murashige and Skoog (MS) plant growth media, and the pH was adjusted to 5.7 using potassium hydroxide. Seeds were sterilized using 20% bleach and sowed on the treated plant growth media. Plants were incubated in a 16 h/8 h day/night cycle growth chamber at 22° C. for 7-14 days prior to phenotyping. For the maize treatments, compounds were added to water, and the pH was adjusted to 5.7 using potassium hydroxide. Maize seeds were sterilized using 20% bleach and grown in large size seed germination pouches (see, e.g., mega-international.com) with the treatment. Plants were incubated in a 16 h/8 h day/night cycle growth chamber at 28° C. night/21° C. day for 5 days prior to phenotyping.
Stock Solutions. 100 mM stock solutions of the various metabolites and itaconate were produced. Metabolites were dissolved using Milli-Q (MQ) water and the pH was adjusted to 5.7-5.8 using 1M KOH. The Ocyl-itaconate stock solution was dissolved in dimethyl sulfoxide (DMSO). Arabidopsis seeds were sterilized using 20% bleach and allowed to mix for 7 minutes. After mixing, seeds were rinsed with sterilized water 6 times. Sterilized seedlings were then placed on media filled square plates. Micropore tape was used to wrap the plates and aluminum foil was used to cover plates, before stratifying for 2 days in a 4° C. chamber. After stratification, seedlings were placed in 22° C. light chamber at intensity 625 lux for 7 days before scanning. All quantifications of the seedlings were performed on FIJI Image J. Seedlings with interesting phenotypes were then transferred to soil in 22° C. conditions with light intensity 625 lux.

maize = experiment: Maize seedling growth under treatment in seed germination pouches; format: in vivo
Description: as §1

pCYCB1; 1-CYCB1; 1-GFP = experiment: Cell cycle reporter line imaging; format: in vivo, Arabidopsis thaliana; settings: 50 μM 4-OI; compared to the control
From the text: (§2) Confocal Images. For Arabidopsis, most of the roots were stained by PI (Propidium iodide). Hormone reporter lines (GFP, 488 nm), hydrogen peroxide sensor lines (GFP, 488 nm; CFP, 408 nm) (see, Shi et al., Nat. Commun. 13:5040, 2022), ATP sensor lines (DeCol et al., eLife, 6:e26770, 2017) were observed under a Leica SP8 confocal microscope (CFP, 439 nm; VENUS, 516 nm).

6×ABRE-R:erGFP = experiment: ABA signaling reporter line imaging; format: in vivo, Arabidopsis thaliana; settings: 4-OI treatment
From the text: as §2

TCSn-GFP = experiment: Cytokinin signaling reporter line imaging; format: in vivo, Arabidopsis thaliana
From the text: as §2

DR5-GFP = experiment: Auxin reporter line imaging; format: in vivo, Arabidopsis thaliana; settings: 4-OI treatment; compared to the control
From the text: as §2

pPIN1-PIN1-GFP = experiment: Auxin transport reporter line imaging; format: in vivo, Arabidopsis thaliana; settings: 4-OI treatment
From the text: as §2

ATP levels = experiment: Fluorescent ATP reporter line imaging; format: in vivo, Arabidopsis thaliana; settings: 4-OI; meristem zone
From the text: as §2

superoxide = experiment: NBT staining of Arabidopsis roots (ROS); format: in vivo, Arabidopsis thaliana; settings: NBT and H2DCFDA staining; 1 mM itaconate, 50 μM 4-OI
Description: ROS staining. For ROS staining, superoxides were detected using NBT; and hydrogen peroxide was detected using 2′,7′-dichlorodihydrofluorescein diacetate (H2DCFDA).
NBT staining procedures were carried out as described in Kumar et al., Bio-protcol, 4:e1108, 2014. Briefly, a 0.2% solution of NBT was made in a 50 mM sodium phosphate buffer. This solution was used to soak seedlings for 2 minutes in the dark and was then rinsed using deionized (DI) water. Images were taken on a with a 1× objective with a Nikon SMZ1270 Stereo microscope.

Arabidopsis [2] = experiment: Arabidopsis root growth under itaconate combined with stress agents or sucrose; format: in vivo, Arabidopsis thaliana; settings: 50 mM NaCl; 100 mM Mannitol
Description: as §1

[3] = test system: root meristem and mature cells; experiment: Aconitate treatment of roots; format: in vivo; settings: treatment with aconitate

## CC(CC(=O)O)C(=O)O (stereo not shown) [2-methyl succinate, reference compound]
Arabidopsis [1]; 0.5 mM 2-methyl succinate
  impact on Arabidopsis (primary root length): does not impact Arabidopsis
Arabidopsis [1]; 2 mM 2-methyl succinate
  impact on Arabidopsis (primary root length): does not impact Arabidopsis

## C=C(CC(=O)OCCCCCCCC)C(=O)O [4-OI, 4-octyl itaconate]
maize; 50 μM 4-OI for 5 days
  maize root growth: enhanced maize root growth
  maize shoot growth: without affecting shoot growth
Arabidopsis [1]; 4-OI, 4 day old seedlings treated for 3 days
  Arabidopsis growth: inhibits Arabidopsis growth in a dose-dependent manner
Arabidopsis [1]; Arabidopsis, 50 μM 4-OI
  plant growth: nearly arrested plant growth
Arabidopsis [1]; Arabidopsis, 4-OI (50 μM)
  root gravitropic orientation: roots lose their gravitropic orientation; also recorded: defective gravitropic phenotype
pCYCB1; 1-CYCB1; 1-GFP
  number of actively dividing cells: significant reduction
6×ABRE-R:erGFP
  6×ABARE-R:erGFP intensity in the roots: induces
TCSn-GFP; 4-OI treatment
  TCSn-GFP signal in the QC: increases the signal in the QC
TCSn-GFP; itaconate or 4-OI treatment
  TCSn-GFP intensity in the columella: decrease; also recorded: reduces
DR5-GFP
  DR5-GFP fluorescent intensity: significantly induced; also recorded: is increased
pPIN1-PIN1-GFP
  pPIN1-PIN1-GFP fluorescent intensity and area: reduces both the pPIN1-PIN1-GFP fluorescent intensity and area
ATP levels
  ATP levels: increased ATP levels
superoxide
  ROS levels in Arabidopsis roots: decrease in ROS levels; also recorded: repress

## C#CCCCCCCOC(=O)CC(=C)C(=O)O [ITalk, itaconate-alkyne, reference compound]
Arabidopsis [1]; Arabidopsis, 1 μM and 10 μM iTalk
  phenotype induced by ITalk treatment: closely resembles that of 4-OI

## [Cl-].[Na+] [NaCl, sodium chloride]
Arabidopsis [2]
  root growth under stress agent alone: decrease root growth

## O=C(O)/C=C(/CC(=O)O)C(=O)O [aconitate]
[3]
  length of mature cells: increased the length of mature cells
  meristem cell number: inhibited meristem cell number

## C=C(CC(=O)O)C(=O)O [itaconate]
maize; maize treated with itaconate, p=0.01
  increased growth: 30%
Arabidopsis [1]; Arabidopsis, same concentration of itaconate as maize, p<0.0001
  decreased growth: 25%

## OC[C@@H](O)[C@@H](O)[C@H](O)[C@H](O)CO [mannitol]
Arabidopsis [2]
  root growth under stress agent alone: decrease root growth
